Experimental findings from patent US20250347696A1, “SELF-ACTIVATING FÖRSTER RESONANCE ENERGY TRANSFER (saFRET) BIOSENSORS AND METHODS FOR MAKING AND USING THEM” (The Regents of the University of California, priority 2021, published 2025) are described below.

Positions count from the first letter of the chain named. Entries after “also recorded” stand apart in the source; their conditions may differ. Where two headings read alike, the source gives them in different places.

Assay [1] addresses T1, ZAP70 kinase (Homo sapiens, UniProt P43403).
T1 sequence (P43403 327-619): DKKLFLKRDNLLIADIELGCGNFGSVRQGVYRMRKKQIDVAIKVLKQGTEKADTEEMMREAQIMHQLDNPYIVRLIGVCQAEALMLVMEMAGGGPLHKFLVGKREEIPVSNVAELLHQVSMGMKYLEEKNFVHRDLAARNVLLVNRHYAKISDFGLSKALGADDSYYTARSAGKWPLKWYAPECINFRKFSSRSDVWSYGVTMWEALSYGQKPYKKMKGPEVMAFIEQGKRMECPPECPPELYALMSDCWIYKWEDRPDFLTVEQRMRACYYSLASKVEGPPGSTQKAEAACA
To be noted: for inhibition of ZAP70 activity (FRET ratio change compared to solvent control): 10 μM, 40 minutes of incubation. The procedure:
(§1) We first screened a 96-member kinase inhibitor library to identify efficient inhibitors of ZAP70 kinase. […] After 40 minutes of incubation with inhibitors, the cells were imaged, and the FRET ratio changes of individual inhibitors compared to the solvent control were calculated to identify promising candidates after this primary endpoint screening (FIG. 5B-D). We further exploited a control biosensor with a kinase-dead domain (saFRETkd) for counter screening to eliminate false-positive hits due to auto-fluorescence or other non-specific effects^48.
• a, Schematics of the high throughput drug screening platform. First, the cells cultured in 96-well glass bottom plate were treated either with DMSO or inhibitors from the kinase inhibitor library. After 40 minutes of incubation, the cells were imaged, and the FRET ratio change compared to the control cell was calculated. […] Scale bars, 10 μm. • c, Summary of screening results. […] Error bars, mean±SD. • e, Counter screening using a mutant biosensor with a kinase-dead domain to subtract the noise engendered from non-specific fluorescence. […] Error bars, mean±SEM.
(§2) Firstly, we transfected HEK293 cells with optimized saFRET biosensor and established a stable cell line. […] HEK293 stable cell line was then cultured in 96 glass bottom wells for approximately 24 hours and then should be ready for high throughput screening (see FIG. 5A, Example 1). We tested this concept by screening an in house kinase inhibitor library (Cayman chemical inc.) and screened a […] kinase inhibitor library to identify efficient inhibitors of ZAP70 kinase. […] After 40 minutes of incubation with inhibitors, the cells were imaged, and the FRET ratio changes of individual inhibitors compared to the solvent control were calculated to identify promising candidates after this primary endpoint screening (see FIG. 5B-G, Example 1). We further exploited a control biosensor with a mutated-kinase dead domain (saFRETkd) for counter screening to eliminate false-positive hits due to auto-fluorescence or other non-specific effects (Simeonov and Davis 2004).

In assay [2] the test system is phosphorylated LAT (Y191). The assay can be described thus: pLAT (Y191) immunostaining in Jurkat T cells after anti-CD3/CD28 stimulation. The format is cell-based, human. The conditions noted are these: inhibitor pre-treatment 30 minutes, anti-CD3/CD28 5 minutes. The method, then: (§3) We tested the phosphorylation of LAT, a downstream substrate of ZAP70 kinase, and the activation of T cells with the top two identified inhibitors, staurosporine and AZD7762.
(§4) • a, Experimental scheme and timeline for experiments in b-d. The Jurkat T cells were pre-treated with inhibitors for 30 minutes before anti-TCR stimulation by anti-CD3/CD28 antibodies for 5 minutes. • b, Immunostaining images of pLAT (Y191) in Jurkat T cells with different inhibitor pre-treatments. Scale bars, 10 μm. • c, Quantification of pLAT (Y191) intensity of single cells in different groups. (n>150 for each group, One-way ANOVA, ****P<0.0001). Error bars, mean±SD. • d, Quantification of pZAP70 (Y493) intensity of single cells in different groups. (n>200 for each group, One-way ANOVA, ****P<0.0001). […] P116 cells with similar ZAP70-WT or ZAP70-R360P expressions were sorted and isolated for further analysis based on YPet intensity. • h, CD69 expression in P116 cells with or without the expression of ZAP70 (WT) and its mutant (R360P). • i, Quantification of pZAP70 (Y493) intensity of single cells in different P116 groups. […] Scale bars, 10 μm. • k, Quantification of pLAT (Y191) intensity of single cells in P116-ZAP70 R360P cells with different inhibitor pre-treatment. […]

Assay [3] deals with pZAP70 (Y493). The assay can be described thus: pZAP70 (Y493) immunostaining in Jurkat T cells after anti-CD3/CD28 stimulation. The assay is classed as cell-based, human. To be noted: inhibitor pre-treatment 30 minutes, anti-CD3/CD28 5 minutes. The procedure:
as §3, §4

The subject of assay [4] is CD69 expression. Kind of assay: CD69 expression by flow cytometry in T cells after anti-TCR stimulation. The format is cell-based, human. To be noted: inhibitor pre-treatment. The method, then: as §3, §4
On the technique in general: A flow cytometer gives signals particle by particle.

In assay [5] the test system is pZAP70 (Y493). Kind of assay: pZAP70 (Y493) in P116-ZAP70 R360P cells. The assay is classed as cell-based, human. To be noted: inhibitor pre-treatment.
Source text: (§5) To examine the efficacy of staurosporine and AZD7762 in inhibiting pathological T cell activation, we used a disease model where T cell activation is mediated by ZAP70-R360P mutation, a main cause of a severe human autoimmune syndrome^4. We introduced wild type ZAP70 or the R360P-mutant of ZAP70 into ZAP70-deficient P116 T cells (FIG. 6G). ZAP70-R360P led to enhanced T cell auto-activation compared to wild type ZAP70 (FIG. 6H).
as §4, with “(n>150 for each group, One-way ANOVA, ****P<0.0001).” left out, “groups.” for “groups. (n>200 for each group, One-way ANOVA, ****P<0.0001).”

Assay [6] has as its system pLAT (Y191). The assay can be described thus: pLAT (Y191) in P116-ZAP70 R360P cells. The assay is classed as cell-based, human. The conditions noted are these: inhibitor pre-treatment.
Source text: as §5
as §4, with “(n>150 for each group, One-way ANOVA, ****P<0.0001).” left out, “groups.” for “groups. (n>200 for each group, One-way ANOVA, ****P<0.0001).”

The test system of assay [7] is CD69 expression. Kind of assay: CD69 expression by flow cytometry in P116-ZAP70-R360P cells. The format is cell-based, human. To be noted: inhibitor pre-treatment.
Source text: as §5
as §4, with “(n>150 for each group, One-way ANOVA, ****P<0.0001).” left out, “groups.” for “groups. (n>200 for each group, One-way ANOVA, ****P<0.0001).”

Assay [8] deals with T2, ZAP70 biosensor with kinase-dead domain (saFRETkd) (Homo sapiens, UniProt P43403, K369A).
T2 construct: kinase 327-619 (both KA and KM) was chosen for generating the Zap70 biosensor substrate libraries; expressed in transfected cells; host or cells: HEK cells
T2 sequence (P43403 327-619 K369A): T1 sequence (P43403 327-619) with K43A
Kind of assay: ZAP70 saFRET biosensor with kinase-dead domain (saFRETkd), control / counter screening. The format is cell-based. The conditions noted are these: for TAK-659-induced FRET response of ZAP70 saFRET biosensor with kinase-dead domain: kinase-dead (K369A) domain, HEK cells. The procedure: as §1, §2
(In general: The purpose of a counterscreen is to sort out artefacts and off-target activity.)

The target of assay [9] is T3, ZAP70 kinase domain (327-619) (Homo sapiens, UniProt P43403).
T3 construct: The combination of ZAP70 kinase domain (327-619) and a substrate from LATY191; expressed in transfected cells; host or cells: HEK cells
T3 sequence (P43403 327-619): T1 sequence (P43403 327-619)
Kind of assay: ZAP70 saFRET biosensor live-cell FRET imaging in HEK cells. To be noted: TAK-659 25 μM. The format is cell-based. An excerpt:
To extend FRET-seq as a general platform to optimize different kinase FRET biosensors in mammalian cells, we further applied this technology to improve the ZAP70 kinase FRET biosensor. […] Similar to the Fyn saFRET biosensor, the FRET change of ZAP70 saFRET biosensor was dominated by the active kinase domain, as evidenced by the observations that the TAK-659-induced dynamic changes (FIG. 3 b,c) and phosphorylation (Supplementary FIG. 5a, or FIG. 11A) were abolished when the kinase domain was replaced by its kinase-dead version (K369A)^41.
Using the established platform for library screening and sequencing, the ZAP70 biosensor candidates selected via the four-dimensional plot were further ranked by the product of Ev (KAH) and Ev (KDL) (FIG. 3D-E). […] The dynamic range of FRET ratio of the biosensors containing […] (SEQ ID NO:113) or […] (SEQ ID NO:114) increased approximately 50% comparing to the parental one, when transiently expressed in HEK cells (FIG. 3G-H). As such, our FRET-seq platform can serve as a general high-throughput approach to engineer FRET biosensor from libraries and develop sensitive kinase biosensors. […]
To increase the specificity of the selected substrates, library with mutated kinase were included. […] The variants which satisfied all conditions were selected (FIG. 3D, Example 1), and their FRET ratio change upon TAK-659 treatment were measured by fluorescence microscope. […]

As for `NC(=O)Nc1cc(-c2cccc(F)c2)sc1C(=O)N[C@H]1CCCNC1` [AZD7762], in assay [1], the “inhibition of ZAP70 activity (FRET ratio change compared to solvent control)” value is listed as “effectively inhibit”. The “phosphorylated LAT (Y191)” value in [2] was “Significant reductions”. Further, in assay [3], the “phosphorylated ZAP70 (Y493)” value was “Significant reductions”. The “expression of CD69” value in [4] is “suppressed”. For the same compound, the “phosphorylation of ZAP70” value in [5] is “significantly inhibited”. The “phosphorylation of LAT (Y191)” value in assay [6] is “significantly inhibited”. For the same compound, the “activation of T cells marked by CD69” value in assay [7] is recorded as “significantly inhibited”.
Turning to `Cc1[nH]c(/C=C2\C(=O)Nc3ccc(S(=O)(=O)Cc4c(Cl)cccc4Cl)cc32)c(C)c1C(=O)N1CCC[C@@H]1CN1CCCC1` [PHA665752], the “FRET ratio change with saFRETkd in counter screening” value in assay [8] (10 μM library inhibitors, kinase-dead biosensor) is on record as “nonspecific reduction of FRET ratio”.
Turning to `CC(C)(C)n1nc(-c2ccc(Cl)cc2)c2c(N)ncnc21` [PP2], the “FRET ratio response of ZAP70 saFRET biosensor (active kinase domain) to inhibitor” value in assay [9] is reported as “not”.
As for `CN[C@@H]1C[C@H]2O[C@@](C)([C@@H]1OC)n1c3ccccc3c3c4c(c5c6ccccc6n2c5c31)C(=O)NC4` [Staurosporine], in assay [1], the “inhibition of ZAP70 activity (FRET ratio change compared to solvent control)” value is listed as “effectively inhibit”. Besides, in [2], the “phosphorylated LAT (Y191)” value is on record as “Significant reductions”. In addition, the “phosphorylated ZAP70 (Y493)” value in assay [3] was “Significant reductions”. Further, the “expression of CD69” value in assay [4] is “suppressed”. In addition, the “phosphorylation of ZAP70” value in [5] is listed as “significantly inhibited”. For the same compound, the “phosphorylation of LAT (Y191)” value in assay [6] was “significantly inhibited”. The “activation of T cells marked by CD69” value in assay [7] is reported as “significantly inhibited”.
As to `Cn1cc(-c2nc(N[C@@H]3CCCC[C@@H]3N)c(F)c3c2C(=O)NC3)cn1` [TAK-659], the “FRET ratio response of ZAP70 saFRET biosensor (active kinase domain) to inhibitor” value in [9] is on record as “specifically responded; also recorded: significant FRET ratio change”. For the same compound, the “inhibition of ZAP70 activity (FRET ratio change compared to solvent control)” value in [1] (listed as TAK659) is on record as “could not reduce the FRET ratio significantly”. Also, the “average FRET ratio reduction” value in assay [1] (25 μM, stable HEK cell line, ZAP70 saFRET biosensor) is listed as “approximately 25%”. The “TAK-659-induced FRET response of ZAP70 saFRET biosensor with kinase-dead domain” value is reported as “abolished; also recorded: did not show any response” in assay [8] and “no response” in assay [8] (listed as TAK659).
Take `COc1ccc2cc(-c3nc(-c4ccc([S+](C)[O-])cc4)[nH]c3-c3ccncc3)ccc2c1` (stereo not shown) [Tie2 kinase inhibitor]: the “inhibition of ZAP70 activity (FRET ratio change compared to solvent control)” value in assay [1] was “effectively inhibit”.
